The source made the active and inactive calls. No cut-off for these calls is given here.
Assays:
Assay type in all cases: functional
[1] = system: Nucleic Acid; assay: Inhibition of DNA transcription by photoactivation at 10 uM
[2] = system: THP-1; assay: Apoptotic activity against illuminated human THP1 cells at 0.05 mM
[3] = system: THP-1; assay: Apoptotic activity against human THP1 cells at 0.05 mM

SMILES | Activity [1] | Activity [2] | Activity [3]
C[N+](C)(C)Cc1cc(O)c(C[N+](C)(C)C)cc1O | Active | – | –
C[N+](C)(C)Cc1cc(-c2ccc(O)c(C[N+](C)(C)C)c2)ccc1O.[I-].[I-] | Active | 62.03% | 3.01%

Reference: ChEMBL document CHEMBL1139025, “Biological studies of photoinducible phenol quaternary ammonium derivatives” (2006)
